From patent publication US11649255B2, “Indazoles as hematopoietic progenitor kinase 1 (HPK1) inhibitors and methods using same” (1st Biotherapeutics, Inc., priority 2020, dated 2023)
Where two headings read alike, the source gives them in different places.

What was measured:
[1] = target: recombinant human HPK1 (Homo sapiens (Human), UniProt Q92918); test: HPK1 kinase assay (ADP-Glo); type: biochemical; conditions: 25 μM ATP, MBP substrate
Method in brief: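 Activity was read as ADP formed, detected by ADP-Glo luminescence after the reaction of 5 ng recombinant human HPK1 with MBP and ATP (stocks 0.5 μg/μl and 25 μM) for 40 min at 30 °C. Buffer was Tris pH 7.5 with MgCl2, BSA and DTT, with compound in 0.5% DMSO. IC50 came from inhibition curves.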

[2] = test system: human peripheral blood pan T cells; test: IFNγ and IL-2 analysis of human peripheral pan T cells; type: cell-based; conditions: T-cell, CD3/CD28 bead stimulation, 100 nM Prostaglandin E2, 24 hr
Protocol: IFNγ and IL-2 Analysis of Human Peripheral Pan T Cells
Human peripheral blood pan T cells were purchased from STEMCELL™ Technologies Inc. Human peripheral blood pan T cells were thawed and suspended in DMEM media (10% FBS and 10 Penicillin/Streptomycin). 8×10^4 T cells were seeded in 96-well plate and incubated with various concentration of compounds and 100 nM Prostaglandin E2 for 1 hr. T cells were stimulated with Dynabeads Human T-Activator CD3/CD28 (Life Technologies) at a 1:3 cells: beads ratio. […] Data were analyzed with an MESO Quickplex SQ120 (Mesoscale Discovery).
In Table 3, the values represent + for >1000 nM, ++ 200-1,000 nM, +++ for <200 nM and − for not determined.

[3] = IFNγ secretion, read-out: IFNγ (EC50)
[4] = IL-2 secretion, read-out: IL-2 (EC50)

recombinant human HPK1, sequence (Q92918 whole entry): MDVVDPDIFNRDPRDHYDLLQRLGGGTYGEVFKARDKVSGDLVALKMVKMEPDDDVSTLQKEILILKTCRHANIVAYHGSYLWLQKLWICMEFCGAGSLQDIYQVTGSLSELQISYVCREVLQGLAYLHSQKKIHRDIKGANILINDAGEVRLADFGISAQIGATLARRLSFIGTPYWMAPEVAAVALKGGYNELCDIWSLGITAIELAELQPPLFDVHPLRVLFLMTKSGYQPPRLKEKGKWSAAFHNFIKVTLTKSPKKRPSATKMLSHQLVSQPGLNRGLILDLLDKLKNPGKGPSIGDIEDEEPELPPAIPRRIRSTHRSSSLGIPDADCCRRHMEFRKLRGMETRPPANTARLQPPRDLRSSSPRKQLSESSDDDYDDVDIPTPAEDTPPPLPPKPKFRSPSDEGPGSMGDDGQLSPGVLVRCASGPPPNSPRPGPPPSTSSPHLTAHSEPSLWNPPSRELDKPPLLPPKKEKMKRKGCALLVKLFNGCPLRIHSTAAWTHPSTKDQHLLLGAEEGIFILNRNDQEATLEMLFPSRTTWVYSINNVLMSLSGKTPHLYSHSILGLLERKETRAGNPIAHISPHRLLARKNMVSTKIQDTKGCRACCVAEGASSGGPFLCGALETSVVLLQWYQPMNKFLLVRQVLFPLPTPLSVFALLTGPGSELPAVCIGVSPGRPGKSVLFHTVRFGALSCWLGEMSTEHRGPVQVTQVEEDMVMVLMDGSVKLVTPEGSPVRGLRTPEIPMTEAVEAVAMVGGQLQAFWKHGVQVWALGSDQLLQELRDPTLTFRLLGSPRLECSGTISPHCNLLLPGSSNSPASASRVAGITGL

CN(C)C(=O)c1c(F)c(Cl)c(-c2ccc3nc(NC(=O)[C@@H]4C[C@@H]4F)cn3c2)c2cn[nH]c12 [Example 320, 5-chloro-6-fluoro-4-(2-((1S,2S)-2-fluorocyclopropane-1-carboxamido)imidazo[1,2-a]pyridin-6-yl)-N,N-dimethyl-1H-indazole-7-carboxamide]
IC50 [1]: < 100 nM | EC50 [2, 3]: 200 to 1000 nM

Cc1c(F)c(SCCO)c2[nH]ncc2c1-c1ccn2nc(NC(=O)[C@@H]3C[C@@H]3F)cc2c1 [Example 523, (1S,2S)-2-fluoro-N-(5-(6-fluoro-7-((2-hydroxyethyl)thio)-5-methyl-1H-indazol-4-yl)pyrazolo[1,5-a]pyridin-2-yl)cyclopropane-1-carboxamide]
IC50 [1]: < 100 nM | EC50 [2, 3]: < 200 nM

CSc1c(F)c(N(C)C)c2[nH]ncc2c1-c1ccc2nc(NC(=O)[C@@H]3C[C@@H]3F)sc2n1 [Example 194, (1S,2S)-N-(5-(7-(dimethylamino)-6-fluoro-5-(methylthio)-1H-indazol-4-yl)thiazolo[5,4-b]pyridin-2-yl)-2-fluorocyclopropane-1-carboxamide]
IC50 [1]: < 100 nM | EC50 [2, 3]: 200 to 1000 nM

Cc1c(F)c(N(C)CCO)c2[nH]ncc2c1-c1ccn2nc(NC(=O)[C@@H]3C[C@@H]3F)cc2c1 [Example 557, (1S,2S)-2-fluoro-N-(5-(6-fluoro-7-((2-hydroxyethyl)(methyl)amino)-5-methyl-1H-indazol-4-yl)pyrazolo[1,5-a]pyridin-2-yl)cyclopropane-1-carboxamide]
IC50 [1]: < 100 nM | EC50 [2, 3]: < 200 nM | EC50 [2, 4]: 200 to 1000 nM

CCN(C)c1c(F)c(Cl)c(-c2ccn3nc(NC(=O)[C@@H]4C[C@@H]4F)cc3c2)c2cn[nH]c12 [Example 564, (1S,2S)-N-(5-(5-chloro-7-(ethyl(methyl)amino)-6-fluoro-1H-indazol-4-yl)pyrazolo[1,5-a]pyridin-2-yl)-2-fluorocyclopropane-1-carboxamide]
IC50 [1]: < 100 nM | EC50 [2, 3]: 200 to 1000 nM | EC50 [2, 4]: 200 to 1000 nM

CN(C)c1c(F)c(Cl)c(-c2ccc3nc(NC(=O)C4CC4)cn3c2)c2cn[nH]c12 [Example 327, N-(6-(5-chloro-7-(dimethylamino)-6-fluoro-1H-indazol-4-yl)imidazo[1,2-a]pyridin-2-yl)cyclopropanecarboxamide]
IC50 [1]: < 100 nM | EC50 [2, 3]: < 200 nM | EC50 [2, 4]: 200 to 1000 nM

CSc1c(F)c(C)c(-c2ccn3nc(NC(=O)[C@@H]4C[C@@H]4F)cc3c2)c2cn[nH]c12 [Example 488, (1S,2S)-2-fluoro-N-(5-(6-fluoro-5-methyl-7-(methylthio)-1H-indazol-4-yl)pyrazolo[1,5-a]pyridin-2-yl)cyclopropane-1-carboxamide]
IC50 [1]: < 100 nM | EC50 [2, 3]: 200 to 1000 nM

CN(C)c1c(F)c(Cl)c(-c2ccc3nc(NC(=O)[C@H]4C[C@H]4F)cn3c2)c2cn[nH]c12 [Example 334, (1R,2R)-N-(6-(5-chloro-7-(dimethylamino)-6-fluoro-1H-indazol-4-yl)imidazo[1,2-a]pyridin-2-yl)-2-fluorocyclopropane-1-carboxamide]
IC50 [1]: < 100 nM | EC50 [2, 3]: 200 to 1000 nM | EC50 [2, 4]: 200 to 1000 nM

CCN(C)c1c(F)c(SC)c(-c2ccn3nc(NC(=O)[C@@H]4C[C@@H]4F)cc3c2)c2cn[nH]c12 [Example 577, (1S,2S)-N-(5-(7-(ethyl(methyl)amino)-6-fluoro-5-(methylthio)-1H-indazol-4-yl)pyrazolo[1,5-a]pyridin-2-yl)-2-fluorocyclopropane-1-carboxamide]
IC50 [1]: < 100 nM | EC50 [2, 3]: < 200 nM | EC50 [2, 4]: 200 to 1000 nM

CN(C)c1c(F)c(Cl)c(-c2ccc3nc(NC(=O)[C@H]4C[C@@H]4F)cn3c2)c2cn[nH]c12 [Example 332, (1R,2S)-N-(6-(5-chloro-7-(dimethylamino)-6-fluoro-1H-indazol-4-yl)imidazo[1,2-a]pyridin-2-yl)-2-fluorocyclopropane-1-carboxamide]
IC50 [1]: < 100 nM | EC50 [2, 3]: 200 to 1000 nM | EC50 [2, 4]: 200 to 1000 nM

CCOc1c(F)c(SC)c(-c2ccn3nc(NC(=O)[C@@H]4C[C@@H]4F)cc3c2)c2cn[nH]c12 [Example 543, (1S,2S)-N-(5-(7-ethoxy-6-fluoro-5-(methylthio)-1H-indazol-4-yl)pyrazolo[1,5-a]pyridin-2-yl)-2-fluorocyclopropane-1-carboxamide]
IC50 [1]: < 100 nM | EC50 [2, 3]: < 200 nM | EC50 [2, 4]: 200 to 1000 nM

CN(c1c(F)c(Cl)c(-c2ccn3nc(NC(=O)[C@@H]4C[C@@H]4F)cc3c2)c2cn[nH]c12)C1CCC(O)CC1 (stereo partly drawn) [Example 503, (1S,2S)-N-(5-(5-chloro-6-fluoro-7-((4-hydroxycyclohexyl)(methyl)amino)-1H-indazol-4-yl)pyrazolo[1,5-a]pyridin-2-yl)-2-fluorocyclopropane-1-carboxamide]
IC50 [1]: < 100 nM | EC50 [2, 3]: 200 to 1000 nM

CCN(C)c1c(F)c(C)c(-c2ccn3nc(NC(=O)[C@@H]4C[C@@H]4F)cc3c2)c2cn[nH]c12 [Example 563, (1S,2S)-N-(5-(7-(ethyl(methyl)amino)-6-fluoro-5-methyl-1H-indazol-4-yl)pyrazolo[1,5-a]pyridin-2-yl)-2-fluorocyclopropane-1-carboxamide]
IC50 [1]: < 100 nM | EC50 [2, 3]: 200 to 1000 nM | EC50 [2, 4]: 200 to 1000 nM

CSc1c(F)c(SC)c2[nH]ncc2c1-c1ccc2nc(NC(=O)[C@@H]3C[C@@H]3F)sc2n1 [Example 170, (1S,2S)-2-fluoro-N-(5-(6-fluoro-5,7-bis(methylthio)-1H-indazol-4-yl)thiazolo[5,4-b]pyridin-2-yl)cyclopropane-1-carboxamide]
IC50 [1]: < 100 nM | EC50 [2, 3]: 200 to 1000 nM | EC50 [2, 4]: > 1000 nM

CN(C)c1c(F)c(Cl)c(-c2ccn3nc(NC(=O)[C@@H]4C[C@@H]4F)cc3c2)c2cn[nH]c12 [Example 484, (1S,2S)-N-(5-(5-chloro-7-(dimethylamino)-6-fluoro-1H-indazol-4-yl)pyrazolo[1,5-a]pyridin-2-yl)-2-fluorocyclopropane-1-carboxamide]
IC50 [1]: < 100 nM | EC50 [2, 3]: < 200 nM | EC50 [2, 4]: 200 to 1000 nM

CSc1c(F)c(N(C)C)c2[nH]ncc2c1-c1ccc2nc(NC(=O)[C@@H]3C[C@@H]3F)sc2c1 [Example 110, (1S,2S)-N-(6-(7-(dimethylamino)-6-fluoro-5-(methylthio)-1H-indazol-4-yl)benzo[d]thiazol-2-yl)-2-fluorocyclopropane-1-carboxamide]
IC50 [1]: < 100 nM | EC50 [2, 3]: < 200 nM

CSc1c(F)cc2[nH]ncc2c1-c1ccc2nc(NC(=O)[C@@H]3C[C@@H]3F)sc2c1 [Example 105, (1S,2S)-2-fluoro-N-(6-(6-fluoro-5-(methylthio)-1H-indazol-4-yl)benzo[d]thiazol-2-yl)cyclopropane-1-carboxamide]
IC50 [1]: < 100 nM | EC50 [2, 3]: 200 to 1000 nM | EC50 [2, 4]: > 1000 nM

CN(C)c1c(F)c(C(F)(F)F)c(-c2ccn3nc(NC(=O)[C@@H]4C[C@@H]4F)cc3c2)c2cn[nH]c12 [Example 565, (1S,2S)-N-(5-(7-(dimethylamino)-6-fluoro-5-(trifluoromethyl)-1H-indazol-4-yl)pyrazolo[1,5-a]pyridin-2-yl)-2-fluorocyclopropane-1-carboxamide]
IC50 [1]: < 100 nM | EC50 [2, 3]: 200 to 1000 nM | EC50 [2, 4]: 200 to 1000 nM

CSc1c(F)c(SC)c2[nH]ncc2c1-c1ccc2nc(NC(=O)[C@@H]3C[C@@H]3F)cn2c1 [Example 297, (1S,2S)-2-fluoro-N-(6-(6-fluoro-5,7-bis(methylthio)-1H-indazol-4-yl)imidazo[1,2-a]pyridin-2-yl)cyclopropane-1-carboxamide]
IC50 [1]: < 100 nM | EC50 [2, 3]: < 200 nM | EC50 [2, 4]: < 200 nM

CCc1c(F)cc2[nH]ncc2c1-c1ccc2nc(NC(=O)[C@@H]3C[C@@H]3F)sc2n1 [Example 152, (1S,2S)—N-(5-(5-ethyl-6-fluoro-1H-indazol-4-yl)thiazolo[5,4-b]pyridin-2-yl)-2-fluorocyclopropane-1-carboxamide]
IC50 [1]: < 100 nM | EC50 [2, 3]: 200 to 1000 nM | EC50 [2, 4]: 200 to 1000 nM

Cc1c(F)c(C(=O)N(C)C)c2[nH]ncc2c1-c1ccc2nc(NC(=O)[C@@H]3C[C@@H]3F)cn2c1 [Example 329, 6-fluoro-4-(2-((1S,2S)-2-fluorocyclopropane-1-carboxamido)imidazo[1,2-a]pyridin-6-yl)-N,N,5-trimethyl-1H-indazole-7-carboxamide]
IC50 [1]: < 100 nM | EC50 [2, 3]: 200 to 1000 nM | EC50 [2, 4]: 200 to 1000 nM

CN(C)C(=O)c1c(F)c(Cl)c(-c2ccc3nc(NC(=O)[C@@H]4C[C@@H]4F)sc3c2)c2cn[nH]c12 [Example 125, 5-chloro-6-fluoro-4-(2-((1S,2S)-2-fluorocyclopropane-1-carboxamido)benzo[d]thiazol-6-yl)-N,N-dimethyl-1H-indazole-7-carboxamide]
IC50 [1]: < 100 nM | EC50 [2, 3]: < 200 nM

Cc1c(F)c(N(C)C)c2[nH]ncc2c1-c1ccc2nc(NC(=O)[C@@H]3C[C@@H]3F)sc2n1 [Example 169, (1S,2S)-N-(5-(7-(dimethylamino)-6-fluoro-5-methyl-1H-indazol-4-yl)thiazolo[5,4-b]pyridin-2-yl)-2-fluorocyclopropane-1-carboxamide]
IC50 [1]: < 100 nM | EC50 [2, 3]: 200 to 1000 nM | EC50 [2, 4]: > 1000 nM

CCOc1c(F)c(SC)c(-c2ccc3nc(NC(=O)[C@@H]4C[C@@H]4F)sc3n2)c2cn[nH]c12 [Example 184, (1S,2S)-N-(5-(7-ethoxy-6-fluoro-5-(methylthio)-1H-indazol-4-yl)thiazolo[5,4-b]pyridin-2-yl)-2-fluorocyclopropane-1-carboxamide]
IC50 [1]: < 100 nM | EC50 [2, 3]: < 200 nM
